The results in this text go back to ChEMBL document CHEMBL4257451, “Synergism of fused bicyclic 2-aminothiazolyl compounds with polymyxin B against Klebsiella pneumoniae” (Medchemcomm, 2017).

Data set [1] relates to Klebsiella pneumoniae. Briefly: Growth inhibition of Klebsiella pneumoniae SIPI-KPN-1712 by broth microdilution method. Particulars: in vitro. It counts as organism-based. (In general: Dilution methods test growth across graded concentrations, often in twofold steps.)
Data set [2] relates to Klebsiella pneumoniae. As to the kind of experiment: Synergistic antibacterial activity against Klebsiella pneumoniae SIPI-KPN-1712 assessed as polymixin B MIC at 4 ug/ml by broth microdilution method (reference value: 32 ug/ml). It counts as functional.
Data set [3] concerns Klebsiella pneumoniae. Briefly: Synergistic antibacterial activity against Klebsiella pneumoniae SIPI-KPN-1712 assessed as fractional Inhibitory concentration index in presence of polymixin B at 2 ug/ml by broth microdilution method. It is filed as functional.

A value given as a limit tells only on which side of the number the result lay.

Regarding `CCOC1CCCc2nc(Nc3ccc4ccccc4n3)sc21` (centres undefined), the figures for the MIC against Klebsiella pneumoniae [1] and with Klebsiella pneumoniae [2] were greater than 128 µg/mL and 32 µg/mL, respectively. In addition, the “fractional inhibitory concentration index (FICI)” value in the data set on Klebsiella pneumoniae [3] is given as 1.03.
For `COC1CCCc2nc(Nc3ccc(I)cc3)sc21` (centres undefined), in that order: greater than 128 µg/mL, 16 µg/mL and 0.53.
With `Cc1ccc(Nc2nc3c(s2)C(OC(=O)n2ccnc2)CCC3)cc1` (centres undefined), the MIC in the data set with Klebsiella pneumoniae [1] was greater than 128 µg/mL; in the data set with Klebsiella pneumoniae [2], 32 µg/mL. Further, in the data set with Klebsiella pneumoniae [3], the “fractional inhibitory concentration index (FICI)” value is 1.03.
Consider `OC1CCCc2nc(Nc3ccc4ccccc4c3)sc21` (centres undefined), for which the figures for the MIC in the data set on Klebsiella pneumoniae [1] and in the data set with Klebsiella pneumoniae [2] were greater than 128 µg/mL and 16 µg/mL, respectively. Further, in the data set with Klebsiella pneumoniae [3], the “fractional inhibitory concentration index (FICI)” value amounted to 0.53.
The like results for `CC(=O)c1ccc(Nc2nc3c(s2)C(O)CCC3)cc1` (centres undefined) were, in that order, greater than 128 µg/mL, 16 µg/mL and 0.53.
As for `COC1CCCc2nc(Nc3ccc([N+](=O)[O-])cc3)sc21` (centres undefined), the values for the MIC against Klebsiella pneumoniae [1] and in the data set with Klebsiella pneumoniae [2] were greater than 128 µg/mL and 16 µg/mL, respectively. Also, the “fractional inhibitory concentration index (FICI)” value in the data set with Klebsiella pneumoniae [3] was 0.53.
For `COC1CCCc2nc(Nc3ccc(O)cc3)sc21` (centres undefined), in that order: greater than 128 µg/mL, 32 µg/mL and 1.03.
The like results for `COC1CCCc2nc(NCc3ccccc3)sc21` (centres undefined) were, in that order, greater than 128 µg/mL, 32 µg/mL and 1.03.
